Values joined by “and” are separate entries in the source; they are usually repeats but may differ in a detail not shown here. Identical values can stand only once.
Legend:
[1] = target: T1, Fibroblast LOX (Homo sapiens, UniProt P28300); assay: Lysyl oxidase enzymatic activity, fluorescence-based assay, IC50; type: biochemical
T1 construct: endogenous in cells
T1 sequence (P28300 169-417): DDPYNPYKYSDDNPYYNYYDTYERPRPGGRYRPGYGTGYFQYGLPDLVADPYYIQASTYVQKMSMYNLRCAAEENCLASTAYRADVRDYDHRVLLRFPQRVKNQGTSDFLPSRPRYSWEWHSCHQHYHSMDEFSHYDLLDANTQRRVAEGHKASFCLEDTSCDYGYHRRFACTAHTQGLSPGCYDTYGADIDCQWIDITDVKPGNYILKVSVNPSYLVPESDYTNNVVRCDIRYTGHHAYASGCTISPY
Excerpt: (§1) Data are presented as mean ± s.d. […] Data presented as mean ± s.d. […] Source data TEXT PRINTED IN THE PICTURE: (b) PXS-5505: Recombinant DAO IC50 (nM): >30,000; Recombinant SSAO/VAP1 IC50 (nM): >30,000; Recombinant MAO-A IC50 (nM): >30,000; Recombinant MAO-B IC50 (nM): >30,000 | (f) PXS-5505: Fibroblast LOX IC50 (nM): 4,930; Recombinant LOXL-1 IC50 (nM): 1,590; Recombinant LOXL-2 IC50 (nM): 570; Recombinant LOXL-3 IC50 (nM): 1,800; Recombinant LOXL-4 IC50 (nM): 190
(§2) In characterizing PXS-5505, the half-maximum inhibitory concentration (IC50) values for each of the lysyl oxidase family members were determined by measuring enzymatic activity using a fluorescence-based assay.
(§3) Data presented as mean values +/− SD. f. […] Data presented as mean values +/− SD. […] Data presented as mean values +/− SD. […] Data presented as mean values +/− SD. Ordinary one-way ANOVA for multiple comparison test performed. Source data

[2] = target: T2, Recombinant LOXL-4 (Homo sapiens, UniProt Q96JB6); assay: as above; type: biochemical
T2 sequence (Q96JB6 25-756): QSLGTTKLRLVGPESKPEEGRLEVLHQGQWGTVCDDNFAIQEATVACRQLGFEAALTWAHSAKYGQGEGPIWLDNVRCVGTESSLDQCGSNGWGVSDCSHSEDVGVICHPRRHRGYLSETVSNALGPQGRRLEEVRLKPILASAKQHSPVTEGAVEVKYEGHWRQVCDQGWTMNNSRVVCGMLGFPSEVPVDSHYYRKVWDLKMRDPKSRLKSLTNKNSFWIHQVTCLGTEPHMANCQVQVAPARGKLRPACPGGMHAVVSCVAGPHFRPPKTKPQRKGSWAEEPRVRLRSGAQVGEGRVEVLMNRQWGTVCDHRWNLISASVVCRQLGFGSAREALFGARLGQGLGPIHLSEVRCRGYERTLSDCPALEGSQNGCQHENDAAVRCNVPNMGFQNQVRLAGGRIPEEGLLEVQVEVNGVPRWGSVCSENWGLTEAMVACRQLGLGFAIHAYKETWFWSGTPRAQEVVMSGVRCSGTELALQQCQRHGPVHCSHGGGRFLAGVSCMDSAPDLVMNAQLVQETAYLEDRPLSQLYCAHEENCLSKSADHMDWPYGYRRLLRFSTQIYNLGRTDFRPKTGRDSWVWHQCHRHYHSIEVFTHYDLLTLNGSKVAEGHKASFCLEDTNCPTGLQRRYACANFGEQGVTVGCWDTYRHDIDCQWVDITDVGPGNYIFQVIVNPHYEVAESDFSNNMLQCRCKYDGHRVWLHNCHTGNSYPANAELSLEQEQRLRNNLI
Excerpt: as §1, §2, §3

[3] = Tissue concentration by LC-MS/MS after single oral dose of 30 mg/kg (plasma, kidney, liver, lung, heart, ear; Extended Data Fig. 3e)
Protocol: PXS-5505 concentration, as measured by LC–MS/MS, in rat plasma, kidney, liver, lung, heart and ear samples following a single oral dose of 30 mg/kg (n = 3 independent animals). Data presented as mean values +/− SD. f. Plasma concentration profile over time in mice following oral administration of PXS-5505 (30 mg/kg) (n = 3 independent animals) g. Schematic of amplex red coupled fluorometric lysyl oxidase family activity assay whereby putrescine (put) is used as a substrate resulting in the release of H2O2 and its subsequent catalysis by horseradish peroxidase (HRP) to […] amplex red to resorufin resulting in a fluorescently detectable signal. […] Data presented as mean values +/− SD. h. qRT-PCR showing in vitro 48 hour treatment of KPC CAFs or cancer cells with 30 μM PXS-5505 or vehicle control (n = 3 biological repeats with 3 technical replicates per biological repeat). Data presented as mean values +/− SD. Relative fold expression of lysyl oxidase family members from PXS-5505 treated samples compared to control were determined by the 2^–∆∆Ct approach. p-values determined by unpaired, nonparametric t-test with a Mann–Whitney U correction (comparison between two groups). i. 2D in vitro cell viability assay (MTS assay) for KPC CAFs and CCs (n = 3 biological repeats with 3 technical replicates per biological repeat) in response to PXS-5505. Data presented as mean values +/− SD. Ordinary one-way ANOVA for multiple comparison test performed. j. 3D in vitro cell viability assay (MTS assay) for KPC CAFs and CCs (n = 3 biological repeats with 3 technical replicates per biological repeat) in response to PXS-5505. Data presented as mean values +/− SD. Ordinary one-way ANOVA for multiple comparison test performed. Source data

[4] = Preclinical genotoxicity and toxicity studies; type: in vivo
[5] = log(Concentration) -4.52288, replicates, 30 µM
[6] = log(Concentration) -5, replicates, 10 µM
[7] = log(Concentration) -5.47712, replicates, 3.333 µM
[8] = log(Concentration) -5.95424, replicates, 1.111 µM
[9] = log(Concentration) -6.43136, replicates, 0.3704 µM
[10] = log(Concentration) -6.90849, replicates, 0.1235 µM
[11] = rat, single oral dose 30 mg/kg, 1 hr, n = 3

Cl.Cl.NC/C=C(\F)CS(=O)(=O)c1cccc2cccnc12.O [PXS-5505, (Z)-3-fluoro-4-(quinolin-8-ylsulfonyl)but-2-en-1-amine dihydrochloride monohydrate]
IC50 [1]: 4930 nM
LOX activity, IC50 determination curve [1, 5]: -1.8303 and 0.6579 and 0.3247
LOX activity, IC50 determination curve [1, 6]: 3.883 and 10.1684 and 20.9265 and 5.02 and 4.758 and 6.391 and 6.186 and 6.029 and 20.5369 and 17.2584 and 29.8226 and 3.623 and 26.5163 and 8.055 and 5.279 and 6.036 and 3.683 and 8.994 and 2.62 and 5.888
LOX activity, IC50 determination curve [1, 7]: 26.3616 and 38.5547 and 37.4589 and 30.4803 and 26.5908 and 26.0097 and 25.4086 and 23.2841 and 47.0211 and 41.5569 and 54.9662 and 30.9927 and 55.9602 and 33.6452 and 26.0055 and 25.2076 and 21.7888 and 33.3569 and 26.6311 and 45.3445
LOX activity, IC50 determination curve [1, 8]: 65.9487 and 69.3911 and 60.7313 and 65.7321 and 64.7348 and 60.684 and 73.4741 and 69.7585 and 72.3228 and 61.8434 and 76.5191 and 70.4394 and 64.4999 and 59.1047 and 54.3417 and 66.355 and 58.9798 and 55.4122
LOX activity, IC50 determination curve [1, 9]: 87.2177 and 88.3395 and 79.2811 and 66.9609 and 65.4146 and 85.3577 and 83.5816 and 83.3016 and 85.8139 and 85.7077 and 63.7427 and 87.2402 and 81.0139 and 93.5693 and 81.2357 and 80.2494 and 78.0142 and 85.6866 and 82.1322 and 88.2018
LOX activity, IC50 determination curve [1, 10]: 96.5523 and 90.6919 and 85.8494 and 82.293 and 94.8665 and 94.3951 and 93.9784 and 95.943 and 87.9121 and 85.7594 and 95.8669 and 88.1459 and 102.086 and 95.1473 and 93.948 and 87.9189 and 98.6889 and 90.9023 and 91.7994
activity at 0.1235 µM ([1]; read-out: LOX activity, IC50 determination curve, log(Concentration) -6.90849, replicates): 99.8%
activity at 0.01372 µM ([1]; read-out: LOX activity, IC50 determination curve, log(Concentration) -7.86273, replicates): 104%
activity at 0.004572 µM ([1]; read-out: LOX activity, IC50 determination curve, log(Concentration) -8.33985, replicates): 102%
activity at 0.001524 µM ([1]; read-out: LOX activity, IC50 determination curve, log(Concentration) -8.81697, replicates): 108%
activity at 0.000508 µM ([1]; read-out: LOX activity, IC50 determination curve, log(Concentration) -9.29409, replicates): 105%
IC50 [2]: 190 nM
LOXL4 activity, IC50 determination curve [2, 5]: -2.4007 and -2.8906 and -3.2101 and -2.6712
LOXL4 activity, IC50 determination curve [2, 6]: -1.4422 and -2.1664 and -2.1983 and -2.2521
LOXL4 activity, IC50 determination curve [2, 7]: 0.2192 and -0.9736 and -1.1972 and -0.2715
LOXL4 activity, IC50 determination curve [2, 8]: 5.544 and 5.363 and 4.947
LOXL4 activity, IC50 determination curve [2, 9]: 33.33 and 26.333 and 28.4205
LOXL4 activity, IC50 determination curve [2, 10]: 72.8948 and 68.0171 and 53.7035 and 49.075
LOXL4 activity, IC50 determination curve ([2]; log(Concentration) -7.38561, replicates, 0.04115 µM): 94.28 and 92.9061 and 89.562 and 72.7789
LOXL4 activity, IC50 determination curve ([2]; log(Concentration) -7.86273, replicates, 0.01372 µM): 99.5304 and 98.9021 and 84.3689
LOXL4 activity, IC50 determination curve ([2]; log(Concentration) -8.33985, replicates, 0.004572 µM): 103.556 and 102.033 and 92.1549
LOXL4 activity, IC50 determination curve ([2]; log(Concentration) -8.81697, replicates, 0.001524 µM): 95.8121
LOXL4 activity, IC50 determination curve ([2]; log(Concentration) -9.29409, replicates, 0.000508 µM): 96.0112
activity at 1.111 µM ([2]; read-out: LOXL4 activity, IC50 determination curve, log(Concentration) -5.95424, replicates): 6.34%
activity at 0.3704 µM ([2]; read-out: LOXL4 activity, IC50 determination curve, log(Concentration) -6.43136, replicates): 39.8%
activity at 0.01372 µM ([2]; read-out: LOXL4 activity, IC50 determination curve, log(Concentration) -7.86273, replicates): 101%
activity at 0.004572 µM ([2]; read-out: LOXL4 activity, IC50 determination curve, log(Concentration) -8.33985, replicates): 106%
activity at 0.001524 µM ([2]; read-out: LOXL4 activity, IC50 determination curve, log(Concentration) -8.81697, replicates): 104%
activity at 0.000508 µM ([2]; read-out: LOXL4 activity, IC50 determination curve, log(Concentration) -9.29409, replicates): 105%
tissue penetration ([3]; after oral administration): penetrates core and peripheral matrix-rich tissues (the ear pinnae) well
PXS-5505 concentration by LC-MS/MS, ear, Mean [3, 11]: 1911.2
PXS-5505 concentration by LC-MS/MS, heart, Mean [3, 11]: 5777.3
PXS-5505 concentration by LC-MS/MS, kidney, Mean [3, 11]: 19237.2
PXS-5505 concentration by LC-MS/MS, liver, Mean [3, 11]: 32467.6
PXS-5505 concentration by LC-MS/MS, lung, Mean [3, 11]: 954.9
PXS-5505 concentration by LC-MS/MS, plasma, Mean [3, 11]: 3609.6
tolerability in preclinical toxicity studies ([4]; 6 months): well tolerated
preclinical development including genotoxicity and toxicity studies ([4]; in vivo): successfully passed
